Results: US9226506B2, “Methods of weed control in chicory” (Dow AgroSciences LLC, priority 2013, dated 2016)

What was measured:
undesirable vegetation = test: Weed control field trials, overall statement; type: in vivo; conditions: applied post-emergence to the crop and weeds
Procedure: (§1) Field trials were conducted in Northern France and Belgium, both of which are major areas for root chicory and whitloof chicory production. Trials were conducted in accordance with EPPO standard PP 1/99(3) entitled “Weeds in Roots Vegetables,” PP 1/152(4) entitled “Design and Analysis of Efficacy Evaluation Trials,” PP 1/135(3) entitled “Phytotoxic Assessment,” and PP 1/181(4) entitled “Conduct and Reporting of Efficacy Evaluation Trials Including Good Experimental Practice,” all of which are incorporated herein by reference in their entirety.
(§2) Application to all field trials was made using a small plot precision sprayer operating at between 160-400 kilopascals (kPa) pressure, delivering a spray volume of 150-400 liters per hectare (L/ha). Nozzles were of a flat fan type. Trial plot size ranged from 4.5×2.5 square meters (m^2) to 10.5×2.5 m^2. […]
(§3) In whitloof chicory (Cichorium intybus), treatments were evaluated which included either two or three post-emergence applications of herbicide. Multiple applications of herbicide were evaluated for their ability to control weed emergence during the extended period of time required for chicory cultivation. […]
3) Following treatments, the remaining plants were weighed to determine the mass per plant (expressed as g/plant) one month after the last pesticide application. […]

[1] = test system: chicory (varieties Ecrine, Hermès); test: Chicory root development (number of roots) after post-emergence applications; type: in vivo, Cichorium intybus; conditions: treatment with penoxsulam in chicory field trials
Procedure: Field trials were conducted in Northern France and Belgium, both of which are major areas for root chicory and whitloof chicory production. Trials were conducted in accordance with EPPO standard PP 1/99(3) entitled “Weeds in Roots Vegetables,” PP 1/152(4) entitled “Design and Analysis of Efficacy Evaluation Trials,” PP 1/135(3) entitled “Phytotoxic Assessment,” and PP 1/181(4) entitled “Conduct and Reporting of Efficacy Evaluation Trials Including Good Experimental Practice,” all of which are incorporated herein by reference in their entirety. […]
as §3
Harvest was carried out 171 DAAC on 4 rows per plot. After harvest, the roots were counted and weighted, and the percent of roots usable for forcing was measured. […] The brut yield (total weight of chicons produced; marketable+non-marketable), net yield (weight of marketable chicons produced) and best class yield (Extra+1=weight of Extra and First Class chicons produced) were measured (in kilograms per 10 square meters (kg/10 m^2)).

[2] = test system: Coronopus didymus (lesser swinecress), COPDI; test: Field trial, post-emergence weed control in chicory; type: in vivo; conditions: 2 trials, 30 days after last application
Procedure: as §1
(§4) Application to all field trials was made using a small plot precision sprayer operating at between 160-400 kilopascals (kPa) pressure, delivering a spray volume of 150-400 liters per hectare (L/ha). Nozzles were of a flat fan type. Trial plot size ranged from 4.5×2.5 square meters (m^2) to 10.5×2.5 m^2. Plots were replicated 3 or 4 times and were arranged in a randomized block design within each trial. All trials received a pre-emergence application of BONALAN® at 6 L/ha (benfluralin; 180 grams active ingredient per liter (g ai/L); commercially available from Dow AgroSciences LLC) with incorporation to prevent the emergence of grasses which could complicate the assessment of broadleaf control.
(§5) In whitloof chicory (Cichorium intybus), treatments were evaluated which included either two or three post-emergence applications of herbicide. Multiple applications of herbicide were evaluated for their ability to control weed emergence during the extended period of time required for chicory cultivation. Trials included different combinations of application rate and application timing. Broadcast applications were made from May to July, covering a range of possible application timings. Penoxulam was applied at a maximum total rate of 15 g/ha per season, applied in two or three applications with a minimum of seven days between applications. Treatment with penoxsulam involved application of either BOA® or VIPER® (2.14% weight per weight (w/w) oil dispersions of penoxsulam commercially available from Dow AgroSciences LLC). Trials were also conducted using another ALS mode-of-action herbicide (i.e., the sulfonylurea triflusulfuron-methyl). Triflusulfuron-methyl was applied at a maximum total rate of 30 g/ha per season, applied in two or three applications with a minimum of seven days between applications. Treatment with triflusulfuron-methyl involved application of SAFARI® (triflusulfuron-methyl; commercially available from DuPont Crop Protection).
(§6) Prior to treatment application, assessments of weed populations (number of plants per m^2) were carried out using a quadrant square and an appropriate number of sampling points.
(§7) 1) Visual rating in percent of the overall volume reduction of vegetation for each species compared to the nearest untreated plot (Plant/Control/% visual; 0%=no control; 100%=all weeds dead). Assessments of this type were performed by Dow AgroSciences LLC in France.
(§8) Assessments of weed control were carried out at 14, 28, 56 and 84 days or longer after each application timing (DAAA=days after application A, DAAB=days after application B or DAAC=days after application C).

[3] = test system: Capsella bursa-pastoris (shepherd's purse), CAPBP; test: as above; type: in vivo; conditions: 2 trials, 30 days after last application
Procedure: as §1, §4, §5, §6, §7, §8

[4] = test system: Artemisia biennis (biennial wormwood), ARTRI; test: as above; type: in vivo; conditions: 3 trials, 30 days after last application
Procedure: as §1, §4, §5, §6, §7, §8

[5] = test system: Solanum nigrum (black nightshade), SQLNI; test: as above; type: in vivo; conditions: 2 trials, 30 days after last application
Procedure: as §1, §4, §5, §6, §7, §8

[6] = test system: Galinsoga ciliata (shaggy soldier) / Galinsoga parviflora (potato weed), GASCI-GASPA; test: as above; type: in vivo; conditions: 4 trials, 30 days after last application
Procedure: as §1, §4, §5, §6, §7, §8

[7] = test system: Sonchus sp. (sow-thistle), SONSS; test: as above; type: in vivo; conditions: 1 trial, 30 days after last application
Procedure: as §1, §4, §5, §6, §7, §8

[8] = test system: Senecio vulgaris (common groundsel), SENVU; test: as above; type: in vivo; conditions: 1 trial, 30 days after last application
Procedure: as §1, §4, §5, §6, §7, §8

[9] = test system: Matricaria recutita (wild chamomile), MATCH; test: as above; type: in vivo; conditions: 2-3 trials (number of trials in parentheses in cell), 30 days after last application
Procedure: as §1, §4, §5, §6, §7, §8

chicory = test system: chicory; set-up: species or system Cichorium intybus; conditions: in vivo
Procedure: as §1
as §2, with “m^2. Plots were replicated 3 or 4 times and were arranged in a randomized block design within each trial.” for “m^2.”
as §3

[10] = 3 applications 3.73/3.73/3.73 g ai/ha

COc1cnc(OC)n2nc(NS(=O)(=O)c3c(OCC(F)F)cccc3C(F)(F)F)nc12 [Penoxsulam]
control of undesirable vegetation (undesirable vegetation): good control of undesirable vegetation | effect on root yield [1]: no deleterious effect on root yield | % Visual Weed Control ([2]; 2 applications 5.6/5.6 g ai/ha): 92.4% | % Visual Weed Control ([2]; 2 applications 7.5/7.5 g ai/ha): 96.25% | % Visual Weed Control [2, 10]: 90.15% | % Visual Weed Control ([2]; 3 applications 5/5/5 g ai/ha): 93.25% | % Visual Weed Control ([3]; 2 applications 5.6/5.6 g ai/ha): 100% | % Visual Weed Control ([3]; 2 applications 7.5/7.5 g ai/ha): 100% | % Visual Weed Control [3, 10]: 100% | % Visual Weed Control ([3]; 3 applications 5/5/5 g ai/ha): 100% | % Visual Weed Control ([4]; 2 applications 5.6/5.6 g ai/ha): 64.4% | % Visual Weed Control ([4]; 2 applications 7.5/7.5 g ai/ha): 68.3% | % Visual Weed Control [4, 10]: 68.8% | % Visual Weed Control ([4]; 3 applications 5/5/5 g ai/ha): 76.4% | % Visual Weed Control ([5]; 2 applications 5.6/5.6 g ai/ha): 66.5% | % Visual Weed Control ([5]; 2 applications 7.5/7.5 g ai/ha): 100% | % Visual Weed Control [5, 10]: 83.4% | % Visual Weed Control ([5]; 3 applications 5/5/5 g ai/ha): 83.4% | % Visual Weed Control ([6]; 2 applications 5.6/5.6 g ai/ha): 87.3% | % Visual Weed Control ([6]; 2 applications 7.5/7.5 g ai/ha): 87.9% | % Visual Weed Control [6, 10]: 95.9% | % Visual Weed Control ([6]; 3 applications 5/5/5 g ai/ha): 96.7% | % Visual Weed Control ([7]; 2 applications 5.6/5.6 g ai/ha): 86% | % Visual Weed Control ([7]; 2 applications 7.5/7.5 g ai/ha): 86% | % Visual Weed Control [7, 10]: 86% | % Visual Weed Control ([7]; 3 applications 5/5/5 g ai/ha): 86% | % Visual Weed Control ([8]; 2 applications 5.6/5.6 g ai/ha): 50% | % Visual Weed Control ([8]; 2 applications 7.5/7.5 g ai/ha): 100% | % Visual Weed Control [8, 10]: 60% | % Visual Weed Control ([8]; 3 applications 5/5/5 g ai/ha): 100% | % Visual Weed Control ([9]; 2 applications 5.6/5.6 g ai/ha): 93 (2) % | % Visual Weed Control ([9]; 2 applications 7.5/7.5 g ai/ha): 93.9 (3) % | % Visual Weed Control [9, 10]: 91.4 (2) % | % Visual Weed Control ([9]; 3 applications 5/5/5 g ai/ha): 97.2 (3) % | crop tolerance (chicory): commercially acceptable crop tolerance | visible crop injury (chicory): some visible crop injury
